Counter-ions that a name gives are not always drawn. Like-named read-outs stand apart in the source and are kept apart here.
What was measured:
ATXN2-luc [1] = experiment: Secondary assays: ATXN2-luc in S2 and H2 cells, 12 doses, Bright-Glo; type: cell-based, human; conditions: for IC50: Homo sapiens; for min ATXN2-luc (%): minimum ATXN2-luc signal over 12 doses, H2 and S2 cells
[2] = Secondary assays: multiplexed cell viability (CellTiter-Fluor); conditions: human
Procedure: The values for H2 and S2 were used as replicates to calculate IC50s and to assess cell viability.
Compounds were plated at 2× concentrations in phenol red–free DMEM in 25 μl in 384-well plates with each compound dose plated in triplicate. An equal volume of S2, H2, or SC cells (24,000 cells/well) suspended in phenol red–free DMEM with 10% fetal bovine serum and 1× penicillin/streptomycin were added. Cells were grown 24 h and then assayed first by using the CellTiter-Fluor reagent (20 μl) followed by the addition of Bright-Glo (65 μl) luciferase assay, using a multimode plate reader (Beckman; DT880). Values were reported as the mean ± SD with n = 3. IC50s were determined by the Hill coefficient method using an online tool (https://www.aatbio.com/tools/ic50-calculator).

CMV-luc [3] = experiment: Secondary assays: CMV-luc in SC cells, Bright-Glo; type: cell-based, human; conditions: minimum CMV-luc signal in SC cells over 12 doses; summary data
ATXN2-luc [4] = experiment: MSSR pilot screen: ATXN2-luc luciferase assay (Bright-Glo) in H2 cells, single 10 μM dose; type: cell-based, human; conditions: for SD from mean (ATXN2-luc, Z-score): H2 cells, single dose (title: 10 μM compound), overnight; for ¦Score/1SD¦: absolute score divided by 1SD (0.891 or 0.9)
H2 and S1 cells = experiment: Paired MTT viability assay, average of H2 and S1 cells (1 and 10 uM); type: cell-based, human; conditions: Homo sapiens
Source text: (§1) Supplement mmc2.xlsx, sheet "43 annotated compounds"

ATXN2-luc [5] = experiment: MSSR hit retest: ATXN2-luc luciferase assay, average of H2 and S1 cells (1 and 10 uM); type: cell-based, human; conditions: Homo sapiens; for activity at 1 µM: read-out: H2&S1 ave luc 1uM; for activity / activity at 10 µM: read-out: H2&S1 ave luc 10uM; for activity at 10 µM: head line r3 10uM
Source text: as §1

CMV-luc [6] = experiment: MSSR counterscreen: CMV-luc expression in HC cells; type: cell-based, human; conditions: for CMV-luc, averages as percent of no compound control: HC cells, n=4 wells; for ATXN2 luc activity (call): summary call for the 12 pilot compounds tested on CMV-luc
ATXN2-luc [7] = experiment: NCATS qHTS (LOPAC pilot, primary and confirmation): ATXN2-luc in S2 cells, 1536-well, Steady-Glo; type: cell-based, human
Procedure, shortened: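 […] S2 cells expressing ATXN2-luc in phenol red–free DMEM screened in 1536-well qHTS format. Luciferase read by Steady-Glo luminescence after 5 min at room temperature (2 s exposure), multiplexed with CellTiter-Fluor viability.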

H2 cells = conditions: 1 nM
ATXN2-luc [8] = experiment: ATXN2-luc luciferase dose-response in H2 cells, 48 h; type: cell-based; conditions: Homo sapiens, read-out: IC50, ATXN2-luc expression by luciferase assay
endogenous ATXN2 = experiment: Endogenous ATXN2 mRNA by qPCR in HEK-293 cells; type: cell-based; conditions: Homo sapiens, HEK293, 48 h, read-out: IC50, endogenous ATXN2 by qPCR
ATXN2-luc [9] = experiment: MSSR hit retest / multiconcentration testing: ATXN2-luc luciferase assay in H2 cells (1 and 10 μM); type: cell-based, human; conditions: 1 uM compound; luciferase, average of H2 and S1 cells expressing ATXN2-luc; rescreen
[10] = ATXN2-luc luciferase assays in H2 and S2 cells, 12 doses plus a zero dose, summary data, read-out: Mean IC50
[11] = read-out: H2&S1 ave MTT 1uM, 1 uM compound
[12] = read-out: H2&S1 ave MTT 10uM, 10 uM compound
[13] = pilot screen at 10 µM compound, H2 cells expressing ATXN2-luc
[14] = 1 uM compound, read-out: H2&S1 ave MTT 1uM
[15] = 10 uM compound, read-out: H2&S1 ave MTT 10uM
[16] = 1 uM compound, average of H2 and S1 cells
[17] = Homo sapiens, LOPAC library screening optimization, logarithm of AC50 (negative values), read-out: Log AC50 (converted)
[18] = Homo sapiens, LOPAC library screening optimization, read-out: AC50
[19] = LOPAC library screening optimization, read-out: AC50

Compound	IC50 (ATXN2-luc [1]; [10])	min ATXN2-luc (%) (ATXN2-luc [1]; summary data)	viability at 24 h [2]	min SC luc (%) (CMV-luc [3])	SD from mean (ATXN2-luc, Z-score) (ATXN2-luc [4])	SD from mean (pilot screen) (ATXN2-luc [4]; pilot screen)	SD from mean (pilot screen) (ATXN2-luc [4]; [13])	¦Score/1SD¦ (ATXN2-luc [4]; pilot screen)	also measured
CC[C@@]1(O)C(=O)OCc2c1cc1n(c2=O)Cc2cc3ccccc3nc2-1 [Camptothecine (S+)]	40 nM	14.3715%	92.1%	42.7084%	-5.283 SD				
C[C@H]1O[C@@H](O[C@H]2[C@@H](O)C[C@H](O[C@H]3[C@@H](O)C[C@H](O[C@H]4CC[C@@]5(C)[C@H](CC[C@@H]6[C@@H]5C[C@@H](O)[C@]5(C)[C@@H](C7=CC(=O)OC7)CC[C@]65O)C4)O[C@@H]3C)O[C@@H]2C)C[C@H](O)[C@@H]1O [Digoxin]		9.041%	67.9%	107.579%	-3.904 SD	-3.904 SD	-3.904	4.38	viability at 1 µM (H2 and S1 cells; [11]): 78.7%; viability at 10 µM (H2 and S1 cells; [12]): 73.5%; activity at 1 µM (ATXN2-luc [5]): 47%; activity (ATXN2-luc [5]): 12%
COc1ccc(CN2CCN(C(c3ccc(F)cc3)c3ccc(F)cc3)CC2)c(OC)c1OC [LOMERIZINE DiHCl]					-2.782 SD	-2.782 SD		3.09	viability at 1 µM (H2 and S1 cells; [14]): 101%; viability at 10 µM (H2 and S1 cells; [15]): 37.6%; SD from mean (pilot screen) (ATXN2-luc [4]; pilot screen, H2 cells expressing ATXN2-luc, single dose printed as 10 μM compound): -2.782; CMV-luc, averages as percent of no compound control (CMV-luc [6]; 0.1 uM compound): 97.7058% of no compound control; CMV-luc, averages as percent of no compound control (CMV-luc [6]; 1 uM compound): 102.901% of no compound control; CMV-luc, averages as percent of no compound control (CMV-luc [6]; 10 uM compound): 80.3815% of no compound control; inhibition at 1 µM (CMV-luc [6]; Homo sapiens, read-out: CMV-luc inhibition @ 1 uM): 0%; inhibition at 10 µM (CMV-luc [6]; Homo sapiens, read-out: CMV-luc inhibition @ 10 uM): 20%; ATXN2 luc activity (call) (CMV-luc [6]): Unclear; activity at 1 µM (ATXN2-luc [5]; [16]): 102%; activity at 10 µM (ATXN2-luc [5]; average of H2 and S1 cells): 55%
CC[C@H](CO)Nc1nc(NCc2ccccc2)c2ncn(C(C)C)c2n1 [NCGC00094374-05, roscovitine]		57.3224%	77.8%	82.4469%					AC50 (ATXN2-luc [7]; [17]): 28200 nM; AC50 (ATXN2-luc [7]; [18]): 28200 nM; Log AC50 (ATXN2-luc [7]; LOPAC library screening optimization, logarithm of AC50 (negative values)): -4.5; AC50 (ATXN2-luc [7]; [19]): 31600 nM
C=CCn1c(=O)c2cnc(Nc3ccc(N4CCN(C)CC4)cc3)nc2n1-c1cccc(C(C)(C)O)n1 [NCGC00263183-01, MK 1775]	343 nM	21.7344%	77.9%	63.0447%					
Cc1cc(Nc2cc(CN3CCOCC3)c3nc(C)c(Cc4ccc(Cl)cc4F)n3n2)n[nH]1 [NCGC00345461-02, LY2784544]	21100 nM	23.1503%	81.6%	67.1857%					
O=C1NC(=O)/C(=C/c2ccc3nccc(-c4ccncc4)c3c2)S1 [NCGC00346509-01, GSK 1059615]	57500 nM	51.4419%	75.5%	85.5514%					
CN(C)CCN1C(=O)c2cccc3cc(N)cc(c23)C1=O [NCGC00346513-01, amonafide]	1840 nM	21.7231%	68.2%	69.6561%					
CNC(=O)c1nn(C)c2c1C(C)(C)Cc1cnc(Nc3ccc(N4CCN(C)CC4)cc3)nc1-2 [NCGC00346673-01, PHA-848125]	436 nM	15.8759%	74.4%	96.2246%					
CC(C)c1cc(C(=O)N2Cc3ccc(CN4CCN(C)CC4)cc3C2)c(O)cc1O [NCGC00346674-01, AT13387]	178 nM	22.3111%	90.6%	71.1894%					
C[C@@H]1O[C@@H](O[C@H]2C[C@@H](O)[C@]3(CO)[C@H]4[C@H](O)C[C@]5(C)[C@@H](C6=CC(=O)OC6)CC[C@]5(O)[C@@H]4CC[C@]3(O)C2)[C@H](O)[C@H](O)[C@H]1O [OUABAIN]	122 nM	6.982%	74.3%	122.219%	-3.832 SD	-3.832 SD	-3.832	4.26	viability at 1 µM (H2 and S1 cells; [14]): 51.8%; viability at 10 µM (H2 and S1 cells; [15]): 60.4%; AC50 (ATXN2-luc [7]; [17]): < 90 nM; AC50 (ATXN2-luc [7]; [18]): < 90 nM; Curve Class (ATXN2-luc [7]; LOPAC library (1,280 compounds) screening optimization, signed sub-classes (-1.1, -2.2, -3 ...)): -1.1; AC50 (ATXN2-luc [7]; [19]): 112 nM; activity at 1 µM (ATXN2-luc [5]; [16]): 14%; activity at 10 µM (ATXN2-luc [5]; average of H2 and S1 cells): 12%
C[C@@H]1O[C@@H](O[C@@H]2C=C3CC[C@@H]4[C@H](CC[C@]5(C)[C@@H](c6ccc(=O)oc6)CC[C@]45O)[C@@]3(C)CC2)[C@H](O)[C@H](O)[C@H]1O [Proscillaridin A]		7.9859%	74.2%	121.976%	-7.684 SD	-7.684 SD	-7.684	8.62	IC50 (ATXN2-luc [1]; 24 h, read-out: IC50 for lowering ATXN2-luc): 17 nM; viability at 1 µM (H2 and S1 cells; [11]): 47.8%; viability at 10 µM (H2 and S1 cells; [12]): 45%; Cellular viability (MTT) (H2 cells): minimal effect on cellular viability; activity at 1 µM (ATXN2-luc [5]): 54%; activity (ATXN2-luc [5]): 22%; IC50 (ATXN2-luc [8]): 52 nM; IC50 (endogenous ATXN2): 677 nM
CN1CCN(CCCN2c3ccccc3Sc3ccc(C(F)(F)F)cc32)CC1 [TRIFLUOPERAZINE HYDROCHLORIDE]					-5.856 SD	-5.856 SD	-5.856	6.51	viability at 1 µM (H2 and S1 cells; [14]): 88.1%; viability at 10 µM (H2 and S1 cells; [15]): 8.76%; H2&S1 ave luc 1uM (ATXN2-luc [9]): 105; CMV-luc, averages as percent of no compound control (CMV-luc [6]; 0.1 uM compound): 94.6408% of no compound control; CMV-luc, averages as percent of no compound control (CMV-luc [6]; 1 uM compound): 100.563% of no compound control; CMV-luc, averages as percent of no compound control (CMV-luc [6]; 10 uM compound): 98.5115% of no compound control; Comment on CMV-luc inhibition (CMV-luc [6]; result in words): No CMV-luc inhibition at 10 uM; ATXN2 luc activity (call) (CMV-luc [6]): Unclear; activity at 1 µM (ATXN2-luc [5]; [16]): 105%; activity at 10 µM (ATXN2-luc [5]; average of H2 and S1 cells): 1.54%
